Calls of active or inactive are those of the source. The calls are words filed in the database; no cut-off is given here.
Key:
[1] = target: T1, Prostaglandin G/H synthase 1 (Homo sapiens, UniProt P23219); assay: biochemical; assay type: cell-based, COS
[2] = target: T2, Prostaglandin G/H synthase 2 (Homo sapiens, UniProt P35354); assay type: cell-based, COS
T2 sequence (P35354 whole entry): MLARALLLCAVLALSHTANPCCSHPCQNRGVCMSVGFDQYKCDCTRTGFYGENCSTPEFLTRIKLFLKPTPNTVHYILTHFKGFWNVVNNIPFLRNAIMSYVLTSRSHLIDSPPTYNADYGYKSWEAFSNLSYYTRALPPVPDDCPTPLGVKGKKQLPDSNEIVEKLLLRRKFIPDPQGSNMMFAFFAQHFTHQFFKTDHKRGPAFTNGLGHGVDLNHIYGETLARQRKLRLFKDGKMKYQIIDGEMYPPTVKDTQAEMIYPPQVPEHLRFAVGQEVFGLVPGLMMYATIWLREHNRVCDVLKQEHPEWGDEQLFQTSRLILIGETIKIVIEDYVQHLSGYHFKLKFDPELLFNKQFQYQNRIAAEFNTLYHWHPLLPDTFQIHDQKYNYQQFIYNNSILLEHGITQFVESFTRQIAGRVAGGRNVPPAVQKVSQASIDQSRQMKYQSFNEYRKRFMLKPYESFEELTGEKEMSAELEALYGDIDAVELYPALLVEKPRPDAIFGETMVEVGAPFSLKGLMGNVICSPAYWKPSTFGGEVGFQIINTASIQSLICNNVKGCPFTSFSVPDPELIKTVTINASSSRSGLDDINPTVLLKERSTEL

[3] = tested on: COS; assay: Selectivity ratio of IC50 for human COX1 to IC50 for human COX2 expressed in african green monkey COS cells; assay type: cell-based
[4] = Selectivity ratio of IC50 for human COX1 to IC50 for human COX2 expressed in baculovirus-infected SF9 cells
[5] = target: T1, Prostaglandin G/H synthase 1; assay: biochemical; assay type: cell-based, Sf9
[6] = target: T2, Prostaglandin G/H synthase 2; assay: biochemical; assay type: cell-based, Sf9
[7] = in vivo; conditions: rat, brain / blood
Description: Ratio of drug level in brain to blood in rat

[8] = target: T1, Prostaglandin G/H synthase 1; assay type: tissue-based, Blood
[9] = organism: Homo sapiens; assay: Selectivity ratio of IC50 for COX1 to IC50 for COX2 in human whole blood; assay type: tissue-based
[10] = target: T2, Prostaglandin G/H synthase 2; assay type: tissue-based, Blood
Description: Inhibition of COX2 in human whole blood assessed as inhibition of lipopolysaccharide-stimulated PGE2 production after 24 hrs by enzyme immunoassay

[11] = Terminal half life in rat at 1 mg/kg/hr, iv; assay type: ADME, organism-based; set-up: route intravenous; conditions: in vivo, read-out: beta t1/2 (converted)
[12] = organism: Rattus norvegicus; assay: Analgesic activity against Freund's adjuvant-induced pain in rat model of acute inflammatory pain assessed as reversal of adjuvant hypersensitivity; assay type: functional
[13] = Blood clearance in rat at 1 mg/kg/hr, iv; assay type: ADME, organism-based; set-up: route intravenous; conditions: whole blood
[14] = Volume of distribution at steady state in rat at 1 mg/kg/hr, iv; assay type: ADME, organism-based; set-up: route intravenous; conditions: in vivo, read-out: Vdss
[15] = Oral bioavailability in rat at 5 mg/kg; assay type: ADME, organism-based; conditions: in vivo

T1 sequence (P23219 whole entry): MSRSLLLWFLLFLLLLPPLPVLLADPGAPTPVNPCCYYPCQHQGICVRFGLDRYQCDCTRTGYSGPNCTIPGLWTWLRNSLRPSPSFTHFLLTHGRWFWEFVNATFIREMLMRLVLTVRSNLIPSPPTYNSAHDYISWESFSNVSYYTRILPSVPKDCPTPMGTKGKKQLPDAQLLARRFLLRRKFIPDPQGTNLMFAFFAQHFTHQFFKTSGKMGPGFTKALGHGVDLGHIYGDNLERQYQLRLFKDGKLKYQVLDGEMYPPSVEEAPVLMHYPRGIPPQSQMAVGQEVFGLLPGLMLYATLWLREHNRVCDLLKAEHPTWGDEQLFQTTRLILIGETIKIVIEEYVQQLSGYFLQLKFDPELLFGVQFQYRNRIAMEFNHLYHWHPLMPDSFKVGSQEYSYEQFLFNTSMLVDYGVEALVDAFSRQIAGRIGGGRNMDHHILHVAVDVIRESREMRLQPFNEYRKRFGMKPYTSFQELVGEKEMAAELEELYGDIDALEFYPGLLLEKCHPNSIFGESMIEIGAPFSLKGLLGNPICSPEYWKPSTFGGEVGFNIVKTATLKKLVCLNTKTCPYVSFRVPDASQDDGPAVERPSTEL

| Compound | IC50 [1] [nM] | IC50 [2] [nM] | Ratio IC50 [3] | other results |
| --- | --- | --- | --- | --- |
| Cc1cc(-c2ccc(S(C)(=O)=O)cc2)nc(NC2CCCCC2)n1 | > 100000 | 1680 | > 59 | – |
| CS(=O)(=O)c1ccc(-c2cc(C(F)(F)F)nc(OC3CCCC3)n2)cc1 | – | – | – | Ratio IC50 [4]: > 404; IC50 [5]: 4040 nM; IC50 [6]: < 10 nM |
| CC(C)Oc1nc(-c2ccc(S(C)(=O)=O)cc2)cc(C(F)(F)F)n1 | – | – | – | Ratio IC50 [4]: 834; IC50 [5]: 52600 nM; IC50 [6]: 63 nM |
| CS(=O)(=O)c1ccc(-c2cc(C(F)(F)F)nc(Nc3ccc(F)cc3)n2)cc1 | > 65800 | 7.2 | > 9140 | – |
| CS(=O)(=O)c1ccc(C2=C(c3ccccc3)C(=O)OC2)cc1 [ROFECOXIB] | – | – | – | Kp [7]: 0.8 |
| CS(=O)(=O)c1ccc(-c2ccnc(NC3CCCCC3)n2)cc1 | > 100000 | > 10000 | inactive | – |
| CS(=O)(=O)c1ccc(-c2cc(C(F)(F)F)nc(OC3CCC3)n2)cc1 | – | – | – | Ratio IC50 [4]: > 1900; IC50 [5]: 19000 nM; IC50 [6]: < 10 nM |
| CS(=O)(=O)c1ccc(-c2cc(C(F)(F)F)nc(N)n2)cc1 | > 100000 | 272 | > 368 | – |
| CCCCNc1nc(-c2ccc(S(C)(=O)=O)cc2)cc(C(F)(F)F)n1 | > 100000 | 1.3 | > 76900 | IC50 [8]: > 96200 nM; Ratio IC50 [9]: > 1370; IC50 [10]: 70 nM |
| CS(=O)(=O)c1ccc(-c2cc(C(F)(F)F)nc(OCC3CCCCC3)n2)cc1 | – | – | – | Ratio IC50 [4]: > 2220; IC50 [5]: > 100000 nM; IC50 [6]: 45 nM |
| CCCNc1nc(-c2ccc(S(C)(=O)=O)cc2)cc(C(F)(F)F)n1 | > 100000 | 5 | > 2000 | – |
| CS(=O)(=O)c1ccc(-c2cc(N)nc(NC3CCCCC3)n2)cc1 | > 100000 | > 10000 | inactive | – |
| CS(=O)(=O)c1ccc(-c2cc(C(=O)O)nc(NC3CCCCC3)n2)cc1 | > 100000 | > 10000 | inactive | – |
| CC(C)(C)Oc1nc(-c2ccc(S(C)(=O)=O)cc2)cc(C(F)(F)F)n1 | – | – | – | Ratio IC50 [4]: 1580; IC50 [5]: 52000 nM; IC50 [6]: 33 nM |
| CS(=O)(=O)c1ccc(-c2cc(C(F)(F)F)nc(Nc3ccccc3)n2)cc1 | > 100000 | 5.6 | > 17900 | – |
| CS(=O)(=O)c1ccc(-c2cc(OCC(F)(F)F)nc(NC3CCCCC3)n2)cc1 | 6320 | 16 | 395 | – |
| NS(=O)(=O)c1ccc(-c2cc(C(F)(F)F)nc(NC3CCCCC3)n2)cc1 | 167 | 2.4 | 69.5 | – |
| Cc1ccc(-c2ncc(Cl)cc2-c2ccc(S(C)(=O)=O)cc2)cn1 [ETORICOXIB] | – | – | – | IC50 [8]: > 100000 nM |
| CS(=O)(=O)c1ccc(-c2cc(C(F)(F)F)nc(NCc3ccccc3)n2)cc1 | > 100000 | – | > 400000 | IC50 [8]: 39300 nM; Ratio IC50 [9]: 4910; IC50 [10]: 8 nM |

| Compound | IC50 [1] [nM] | IC50 [2] [nM] | Ratio IC50 [3] | other results |
| --- | --- | --- | --- | --- |
| Cc1ccc(Nc2nc(-c3ccc(S(C)(=O)=O)cc3)cc(C(F)(F)F)n2)cc1 | > 100000 | 11 | > 9090 | – |
| Cc1ccc(CNc2nc(-c3ccc(S(C)(=O)=O)cc3)cc(C(F)(F)F)n2)cc1 | > 100000 | < 10 | > 10000 | – |
| CC(C)CNc1nc(-c2ccc(S(C)(=O)=O)cc2)cc(C(F)(F)F)n1 | > 66200 | 2 | > 33100 | half-life [11]: 9 h; Ratio IC50 [4]: > 8330; IC50 [5]: > 100000 nM; ED50 [12]: 0.5 mg/kg; clearance [13]: 10 mL/min/kg; Vd [14]: 6 L/kg; IC50 [8]: 62000 nM; IC50 [6]: 12 nM; Ratio IC50 [9]: 301; IC50 [10]: 206 nM; bioavailability [15]: 107% |
| Cc1c(-c2ccc(S(C)(=O)=O)cc2)nc(NC2CCCCC2)nc1C(F)(F)F | > 100000 | > 10000 | inactive | – |
| CS(=O)(=O)c1ccc(-c2cc(C(F)(F)F)nc(NC3CCNCC3)n2)cc1 | > 100000 | > 10000 | inactive | – |
| CS(=O)(=O)c1ccc(-c2cc(C(F)(F)F)nc(OCC3CCCCCC3)n2)cc1 | – | – | – | Ratio IC50 [4]: inactive; IC50 [6]: 1030 nM |
| CS(=O)(=O)c1ccc(-c2cc(C(F)(F)F)nc(NCC3CCOCC3)n2)cc1 | 100000 | 5 | 20000 | – |
| Cc1ccc(N(C)c2nc(-c3ccc(S(C)(=O)=O)cc3)cc(C(F)(F)F)n2)cc1 | > 74200 | 3 | > 24700 | – |
| CS(=O)(=O)c1ccc(-c2cc(C(F)(F)F)nc(OC3CCCCCC3)n2)cc1 | – | – | – | Ratio IC50 [4]: > 192; IC50 [5]: 1920 nM; IC50 [6]: < 10 nM |
| Cc1cnc(NC2CCCCC2)nc1-c1ccc(S(C)(=O)=O)cc1 | > 100000 | > 10000 | inactive | – |
| CS(=O)(=O)c1ccc(-c2cc(C(F)(F)F)nc(NCC3CCCCC3)n2)cc1 | > 100000 | 29 | > 3450 | – |
| CS(=O)(=O)c1ccc(-c2cc(C(F)(F)F)nc(NC3CCOCC3)n2)cc1 | > 91600 | – | > 5090 | – |
| Cc1cccc(Oc2nc(-c3ccc(S(C)(=O)=O)cc3)cc(C(F)(F)F)n2)c1 | – | – | – | Ratio IC50 [4]: > 436; IC50 [5]: 4360 nM; IC50 [6]: < 10 nM |
| CS(=O)(=O)c1ccc(-c2cc(C(N)=O)nc(NC3CCCCC3)n2)cc1 | > 100000 | > 10000 | inactive | – |
| CS(=O)(=O)c1ccc(-c2cc(C(F)(F)F)nc(OC3CCCCCCC3)n2)cc1 | – | – | – | Ratio IC50 [4]: > 300; IC50 [5]: 3000 nM; IC50 [6]: < 10 nM |
| CS(=O)(=O)c1ccc(-c2cc(C(F)(F)F)nc(NC3CCCCC3)n2)cc1 | > 58400 | – | > 117000 | IC50 [8]: 11600 nM; Ratio IC50 [9]: 187; IC50 [10]: 62 nM |
| CCCCNc1nc(-c2ccc(S(N)(=O)=O)cc2)cc(C(F)(F)F)n1 | 700 | < 1.4 | > 500 | – |
| Cc1ccc(Oc2nc(-c3ccc(S(C)(=O)=O)cc3)cc(C(F)(F)F)n2)cc1 | – | – | – | Ratio IC50 [4]: > 375 |
